From publication PMC8155022 (Scientific Reports, 2021)

Columns and labels:
ERα = biological target: T1, ERα (Homo sapiens, UniProt P03372); test: nuclear receptor cellular GAL4 reporter assay; format: cell-based; conditions: agonist and antagonist mode; read-out: potency in agonist and antagonist mode
T1 construct: expressed in transfected cells

MR = biological target: T2, MR (Homo sapiens, UniProt P08235); test: nuclear receptor cellular GAL4 reporter assay; format: cell-based; conditions: agonist and antagonist mode; read-out: potency in agonist and antagonist mode
T2 construct: expressed in transfected cells

AR = biological target: T3, AR (Homo sapiens, UniProt P10275); test: nuclear receptor cellular GAL4 reporter assay; format: cell-based; conditions: agonist and antagonist mode; read-out: potency in agonist and antagonist mode
T3 construct: expressed in transfected cells

A1 (h) = biological target: T4, A1 (h) (Homo sapiens, UniProt P30542); test: Cerep panel; format: binding
T4 construct: purchased Cerep (receptors, ion channels, transporters); Eurofins Panlabs (kinases)
Method: (§1) A panel of 52 different receptors, ion channels and transporters was tested by Cerep, Inc. (Redmond, WA).

D1 (h) = biological target: T5, D1 (h) (Homo sapiens, UniProt P21728); test: Cerep panel; format: binding
T5 construct: purchased Cerep (receptors, ion channels, transporters); Eurofins Panlabs (kinases)
Method: as §1

MC4 (h) = biological target: T6, MC4 (h) (Homo sapiens, UniProt P32245); test: Cerep panel; format: binding
T6 construct: purchased Cerep (receptors, ion channels, transporters); Eurofins Panlabs (kinases)
Method: as §1

M3 (h) = biological target: T7, M3 (h) (Homo sapiens, UniProt P20309); test: Cerep panel; format: binding
T7 construct: purchased Cerep (receptors, ion channels, transporters); Eurofins Panlabs (kinases)
Method: as §1

NK3 (h) = biological target: T8, NK3 (h) (Homo sapiens, UniProt P29371); test: Cerep panel; format: binding
T8 construct: purchased Cerep (receptors, ion channels, transporters); Eurofins Panlabs (kinases)
Method: as §1

5-HT5A (h) = biological target: T9, 5-HT5A (h) (Homo sapiens, UniProt P47898); test: Cerep panel; format: binding
T9 construct: purchased Cerep (receptors, ion channels, transporters); Eurofins Panlabs (kinases)
Method: as §1

DA-T transporter (h) = biological target: T10, DA-T transporter (h) (Homo sapiens, UniProt Q01959); test: Cerep panel; format: binding
T10 construct: purchased Cerep (receptors, ion channels, transporters); Eurofins Panlabs (kinases)
Method: (§2) 28 GPCRs were evaluated through cAMP or calcium FLIPR assays[67]. A panel of 52 different receptors, ion channels and transporters was tested by Cerep, Inc. (Redmond, WA).

5-HT-T = biological target: T11, 5-HT-T (Homo sapiens, UniProt P31645); test: Cerep panel; format: binding
T11 construct: purchased Cerep (receptors, ion channels, transporters); Eurofins Panlabs (kinases)
Method: as §2

5HT6 = 5HT6 (Homo sapiens, UniProt P50406); test: GPCR panel, cAMP or calcium FLIPR assays; format: cell-based
Method: (§3) 28 GPCRs were evaluated through cAMP or calcium FLIPR assays[67].

5HT7 = 5HT7 (Homo sapiens, UniProt P34969); test: GPCR panel, cAMP or calcium FLIPR assays; format: cell-based
Method: as §3

ADRA2B - AG = ADRA2B - AG (Homo sapiens, UniProt P18089); test: GPCR panel, cAMP or calcium FLIPR assays; format: cell-based
Method: as §3

ADRA2C = ADRA2C (Homo sapiens, UniProt P18825); test: GPCR panel, cAMP or calcium FLIPR assays; format: cell-based
Method: as §3

D2L = D2L (Homo sapiens, UniProt P14416); test: GPCR panel, cAMP or calcium FLIPR assays; format: cell-based
Method: as §3

ETA = ETA (Homo sapiens, UniProt P25101); test: GPCR panel, cAMP or calcium FLIPR assays; format: cell-based
Method: as §3

KOP = KOP (Homo sapiens, UniProt P41145); test: GPCR panel, cAMP or calcium FLIPR assays; format: cell-based
Method: as §3

M2 = M2 (Homo sapiens, UniProt P08172); test: GPCR panel, cAMP or calcium FLIPR assays; format: cell-based
Method: as §3

CHK1(h) = biological target: T12, CHK1(h) (Homo sapiens, UniProt O14757); test: Kinase panel; format: biochemical
T12 construct: purchased Cerep (receptors, ion channels, transporters); Eurofins Panlabs (kinases)
Method: (§4) Kinase selectivity was conducted by Eurofins Panlabs Inc (St Charles, MO).

CK2α2(h) = biological target: T13, CK2α2(h) (Homo sapiens, UniProt P19784); test: Kinase panel; format: biochemical
T13 construct: purchased Cerep (receptors, ion channels, transporters); Eurofins Panlabs (kinases)
Method: as §4

cSRC(h) = biological target: T14, cSRC(h) (Homo sapiens, UniProt P12931); test: Kinase panel; format: biochemical
T14 construct: purchased Cerep (receptors, ion channels, transporters); Eurofins Panlabs (kinases)
Method: as §4

GSK3α(h) = biological target: T15, GSK3α(h) (Homo sapiens, UniProt P49840); test: Kinase panel; format: biochemical
T15 construct: purchased Cerep (receptors, ion channels, transporters); Eurofins Panlabs (kinases)
Method: as §4

GSK3β(h) = biological target: T16, GSK3β(h) (Homo sapiens, UniProt P49841); test: Kinase panel; format: biochemical
T16 construct: purchased Cerep (receptors, ion channels, transporters); Eurofins Panlabs (kinases)
Method: as §4

IKKβ(h) = biological target: T17, IKKβ(h) (Homo sapiens, UniProt O14920); test: Kinase panel; format: biochemical
T17 construct: purchased Cerep (receptors, ion channels, transporters); Eurofins Panlabs (kinases)
Method: as §4

IRAK4(h) = biological target: T18, IRAK4(h) (Homo sapiens, UniProt Q9NWZ3); test: Kinase panel; format: biochemical
T18 construct: purchased Cerep (receptors, ion channels, transporters); Eurofins Panlabs (kinases)
Method: as §4

JAK3(h) = biological target: T19, JAK3(h) (Homo sapiens, UniProt P52333); test: Kinase panel; format: biochemical
T19 construct: purchased Cerep (receptors, ion channels, transporters); Eurofins Panlabs (kinases)
Method: as §4

MAPK1(h) = biological target: T20, MAPK1(h) (Homo sapiens, UniProt P27361); test: Kinase panel; format: biochemical
T20 construct: purchased Cerep (receptors, ion channels, transporters); Eurofins Panlabs (kinases)
Method: as §4

PAK4(h) = biological target: T21, PAK4(h) (Homo sapiens, UniProt O96013); test: Kinase panel; format: biochemical
T21 construct: purchased Cerep (receptors, ion channels, transporters); Eurofins Panlabs (kinases)
Method: as §4

Plk1(h) = biological target: T22, Plk1(h) (Homo sapiens, UniProt P53350); test: Kinase panel; format: biochemical
T22 construct: purchased Cerep (receptors, ion channels, transporters); Eurofins Panlabs (kinases)
Method: as §4

TrkC(h) = biological target: T23, TrkC(h) (Homo sapiens, UniProt Q16288); test: Kinase panel; format: biochemical
T23 construct: purchased Cerep (receptors, ion channels, transporters); Eurofins Panlabs (kinases)
Method: as §4

NK2 = NK2 (Homo sapiens, UniProt P21452); test: follow-up functional study; format: cell-based
[1] = tested on: CD4+ T cells under Treg polarizing conditions; test: in vitro human Treg differentiation, FOXP3 gene expression; format: cell-based; conditions: 6 days
Excerpt: Supplement Materials and Methods
In vitro human Treg differentiation
Human nTreg Suppressive Assay

dogs = test: chronic dosing up to 9 months in dogs; format: in vivo; conditions: dog, data not shown, reversible
Excerpt: This is consistent with the reported physiological role of RORγt as a critical molecule in controlling the survival of thymocytes[7],[66]. JNJ-61803534-induced thymocyte apoptosis was reversible and was deemed non-adverse alterations.

plasma protein binding = format: in vitro ADME; conditions: human

T4 sequence (P30542 whole entry): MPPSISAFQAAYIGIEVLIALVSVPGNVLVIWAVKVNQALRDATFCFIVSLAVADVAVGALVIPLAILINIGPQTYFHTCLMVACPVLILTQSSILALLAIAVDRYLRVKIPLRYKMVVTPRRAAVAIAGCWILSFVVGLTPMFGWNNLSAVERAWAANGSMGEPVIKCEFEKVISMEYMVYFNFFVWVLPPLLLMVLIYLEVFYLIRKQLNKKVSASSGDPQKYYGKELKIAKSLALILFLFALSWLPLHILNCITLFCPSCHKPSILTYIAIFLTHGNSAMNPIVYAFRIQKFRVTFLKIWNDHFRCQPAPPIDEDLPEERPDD
T22 sequence (P53350 whole entry): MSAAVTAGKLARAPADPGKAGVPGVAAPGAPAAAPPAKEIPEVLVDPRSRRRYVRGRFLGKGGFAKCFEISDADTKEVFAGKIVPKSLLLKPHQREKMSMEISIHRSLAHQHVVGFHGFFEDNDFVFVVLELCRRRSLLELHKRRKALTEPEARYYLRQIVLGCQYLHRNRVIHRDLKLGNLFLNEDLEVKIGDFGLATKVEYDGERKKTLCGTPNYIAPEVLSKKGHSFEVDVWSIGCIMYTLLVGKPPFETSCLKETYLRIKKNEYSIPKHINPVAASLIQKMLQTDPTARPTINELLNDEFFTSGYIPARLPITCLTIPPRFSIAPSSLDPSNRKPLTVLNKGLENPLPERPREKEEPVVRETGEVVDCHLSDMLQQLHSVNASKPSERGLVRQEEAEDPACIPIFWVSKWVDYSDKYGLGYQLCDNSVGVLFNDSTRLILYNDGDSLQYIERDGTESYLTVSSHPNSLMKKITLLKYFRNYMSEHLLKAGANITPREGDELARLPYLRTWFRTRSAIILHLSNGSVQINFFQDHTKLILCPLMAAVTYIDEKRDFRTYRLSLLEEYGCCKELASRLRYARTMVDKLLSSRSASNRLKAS
T7 sequence (P20309 whole entry): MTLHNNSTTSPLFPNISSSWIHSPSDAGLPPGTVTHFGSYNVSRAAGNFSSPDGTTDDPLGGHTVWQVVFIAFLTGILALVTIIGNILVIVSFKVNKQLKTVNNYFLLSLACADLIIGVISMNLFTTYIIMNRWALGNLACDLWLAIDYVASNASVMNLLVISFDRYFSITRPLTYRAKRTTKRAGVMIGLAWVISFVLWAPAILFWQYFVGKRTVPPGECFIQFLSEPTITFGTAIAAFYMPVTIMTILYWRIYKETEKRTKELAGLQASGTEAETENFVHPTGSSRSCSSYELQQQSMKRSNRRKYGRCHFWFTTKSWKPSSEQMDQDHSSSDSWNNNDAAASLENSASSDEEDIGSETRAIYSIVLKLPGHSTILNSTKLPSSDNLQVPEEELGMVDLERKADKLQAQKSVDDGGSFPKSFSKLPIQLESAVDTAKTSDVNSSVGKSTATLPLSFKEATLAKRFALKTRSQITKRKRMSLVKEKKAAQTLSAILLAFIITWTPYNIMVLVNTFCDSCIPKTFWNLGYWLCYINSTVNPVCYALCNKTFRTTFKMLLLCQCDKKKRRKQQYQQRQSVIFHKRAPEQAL
T20 sequence (P27361 whole entry): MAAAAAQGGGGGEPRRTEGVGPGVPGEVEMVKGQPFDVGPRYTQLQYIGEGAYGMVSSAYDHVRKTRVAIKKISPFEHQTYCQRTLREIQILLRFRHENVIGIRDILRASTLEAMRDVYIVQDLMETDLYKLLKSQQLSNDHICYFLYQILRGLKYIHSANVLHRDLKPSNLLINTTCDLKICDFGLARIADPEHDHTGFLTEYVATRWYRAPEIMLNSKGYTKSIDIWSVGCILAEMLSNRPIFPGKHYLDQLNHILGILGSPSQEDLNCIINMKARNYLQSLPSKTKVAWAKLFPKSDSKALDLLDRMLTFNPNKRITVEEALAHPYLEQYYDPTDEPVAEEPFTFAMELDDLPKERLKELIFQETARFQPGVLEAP
T14 sequence (P12931 whole entry): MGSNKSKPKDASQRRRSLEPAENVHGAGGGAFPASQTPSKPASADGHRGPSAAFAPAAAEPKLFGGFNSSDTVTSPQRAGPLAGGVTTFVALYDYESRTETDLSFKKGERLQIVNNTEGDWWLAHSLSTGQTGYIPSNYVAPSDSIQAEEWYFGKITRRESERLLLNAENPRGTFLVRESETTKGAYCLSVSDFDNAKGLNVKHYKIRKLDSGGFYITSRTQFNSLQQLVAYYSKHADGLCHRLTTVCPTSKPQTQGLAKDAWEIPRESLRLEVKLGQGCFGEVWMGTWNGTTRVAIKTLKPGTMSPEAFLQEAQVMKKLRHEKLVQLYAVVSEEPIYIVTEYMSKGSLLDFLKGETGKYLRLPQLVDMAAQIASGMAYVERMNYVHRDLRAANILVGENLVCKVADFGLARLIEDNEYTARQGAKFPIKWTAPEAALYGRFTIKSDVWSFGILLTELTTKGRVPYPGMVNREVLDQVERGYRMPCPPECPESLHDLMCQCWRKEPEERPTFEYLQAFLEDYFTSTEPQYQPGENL
Sequence of 5HT6 (P50406 whole entry): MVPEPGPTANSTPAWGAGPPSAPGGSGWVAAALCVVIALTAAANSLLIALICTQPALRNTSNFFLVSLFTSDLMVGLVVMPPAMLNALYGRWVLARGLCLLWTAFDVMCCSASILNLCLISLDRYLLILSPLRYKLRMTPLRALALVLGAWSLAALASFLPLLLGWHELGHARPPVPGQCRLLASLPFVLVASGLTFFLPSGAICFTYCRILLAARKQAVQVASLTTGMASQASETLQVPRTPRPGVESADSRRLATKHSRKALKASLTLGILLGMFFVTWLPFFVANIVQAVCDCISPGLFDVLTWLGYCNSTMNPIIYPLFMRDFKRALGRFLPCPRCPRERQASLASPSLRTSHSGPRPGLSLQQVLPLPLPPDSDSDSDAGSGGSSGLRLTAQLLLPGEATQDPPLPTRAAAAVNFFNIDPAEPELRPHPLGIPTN
T17 sequence (O14920 whole entry): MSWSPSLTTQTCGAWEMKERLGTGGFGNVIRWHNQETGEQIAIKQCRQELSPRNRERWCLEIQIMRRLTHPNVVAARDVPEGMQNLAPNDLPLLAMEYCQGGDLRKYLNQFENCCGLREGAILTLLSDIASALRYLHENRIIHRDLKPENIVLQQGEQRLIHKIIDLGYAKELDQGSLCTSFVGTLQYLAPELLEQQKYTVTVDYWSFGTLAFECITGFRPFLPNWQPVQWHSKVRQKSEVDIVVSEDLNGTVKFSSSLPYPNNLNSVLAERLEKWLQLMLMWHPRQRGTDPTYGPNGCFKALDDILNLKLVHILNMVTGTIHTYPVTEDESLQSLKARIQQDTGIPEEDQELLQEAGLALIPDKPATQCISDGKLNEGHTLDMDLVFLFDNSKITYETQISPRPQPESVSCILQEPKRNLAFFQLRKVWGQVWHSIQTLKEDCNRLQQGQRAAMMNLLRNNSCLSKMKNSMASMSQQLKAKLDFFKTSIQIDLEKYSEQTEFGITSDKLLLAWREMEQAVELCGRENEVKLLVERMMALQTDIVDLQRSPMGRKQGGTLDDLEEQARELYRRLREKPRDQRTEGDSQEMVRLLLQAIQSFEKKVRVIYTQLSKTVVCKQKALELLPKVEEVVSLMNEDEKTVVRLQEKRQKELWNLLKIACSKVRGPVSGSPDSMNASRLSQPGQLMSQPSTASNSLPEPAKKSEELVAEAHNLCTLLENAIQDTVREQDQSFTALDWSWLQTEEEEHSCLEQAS
Sequence of 5HT7 (P34969 whole entry): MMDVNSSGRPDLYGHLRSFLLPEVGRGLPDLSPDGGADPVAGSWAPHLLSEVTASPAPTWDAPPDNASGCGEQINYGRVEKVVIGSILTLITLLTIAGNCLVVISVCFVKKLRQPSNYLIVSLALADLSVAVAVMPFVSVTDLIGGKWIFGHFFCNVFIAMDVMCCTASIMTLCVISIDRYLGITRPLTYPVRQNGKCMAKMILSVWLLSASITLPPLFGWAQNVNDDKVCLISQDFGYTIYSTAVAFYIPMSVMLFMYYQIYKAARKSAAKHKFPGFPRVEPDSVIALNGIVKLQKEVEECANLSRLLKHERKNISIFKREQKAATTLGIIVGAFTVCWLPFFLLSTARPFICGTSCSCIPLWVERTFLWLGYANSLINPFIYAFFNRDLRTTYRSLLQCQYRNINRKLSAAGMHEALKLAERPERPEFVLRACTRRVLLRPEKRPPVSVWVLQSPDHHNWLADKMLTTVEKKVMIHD
T23 sequence (Q16288 32-839): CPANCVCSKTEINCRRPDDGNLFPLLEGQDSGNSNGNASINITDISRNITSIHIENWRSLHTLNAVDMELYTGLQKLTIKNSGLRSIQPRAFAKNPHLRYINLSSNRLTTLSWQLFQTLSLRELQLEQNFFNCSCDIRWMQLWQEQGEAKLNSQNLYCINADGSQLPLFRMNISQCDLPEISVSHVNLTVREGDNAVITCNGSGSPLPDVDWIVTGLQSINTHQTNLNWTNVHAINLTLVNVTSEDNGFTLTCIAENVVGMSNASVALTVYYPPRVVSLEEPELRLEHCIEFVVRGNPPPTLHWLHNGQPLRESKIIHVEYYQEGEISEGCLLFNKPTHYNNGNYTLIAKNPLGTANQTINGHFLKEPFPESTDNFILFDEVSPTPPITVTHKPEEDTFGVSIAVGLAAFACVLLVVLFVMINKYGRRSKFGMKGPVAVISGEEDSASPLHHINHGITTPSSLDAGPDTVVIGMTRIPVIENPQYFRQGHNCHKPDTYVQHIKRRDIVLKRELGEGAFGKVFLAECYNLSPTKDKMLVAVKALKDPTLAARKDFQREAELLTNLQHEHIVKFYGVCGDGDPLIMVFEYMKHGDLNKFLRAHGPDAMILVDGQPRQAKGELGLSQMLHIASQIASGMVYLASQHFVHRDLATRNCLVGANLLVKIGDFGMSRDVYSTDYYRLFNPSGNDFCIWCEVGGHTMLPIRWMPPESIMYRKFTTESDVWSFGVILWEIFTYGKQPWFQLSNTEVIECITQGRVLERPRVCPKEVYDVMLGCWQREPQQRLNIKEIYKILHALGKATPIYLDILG

SMILES: CC1CCCN1C(=O)c1nc(C(=O)NCC(C)(C)O)sc1-c1ccc(C(O)(C(F)(F)F)C(F)(F)F)c(Cl)c1Cl (stereo not shown) [JNJ-61803534]
- IC50 (ERα): > 1.5 µM
- IC50 (MR): > 1.5 µM
- IC50 (AR): > 1.5 µM
- inhibition at 1 µM (A1 (h)): < 10%
- inhibition at 10 µM (A1 (h)): < 10%
- inhibition at 1 µM (D1 (h)): < 10%
- inhibition at 10 µM (D1 (h)): < 10%
- inhibition at 1 µM (MC4 (h)): < 10%
- inhibition at 10 µM (MC4 (h)): < 10%
- inhibition at 1 µM (M3 (h)): < 10%
- inhibition at 10 µM (M3 (h)): < 10%
- inhibition at 1 µM (NK3 (h)): < 10%
- inhibition at 10 µM (NK3 (h)): < 10%
- inhibition at 1 µM (5-HT5A (h)): < 10%
- inhibition at 10 µM (5-HT5A (h)): < 10%
- inhibition at 1 µM (DA-T transporter (h)): < 10%
- inhibition at 10 µM (DA-T transporter (h)): < 10%
- inhibition at 1 µM (5-HT-T): < 10%
- inhibition at 10 µM (5-HT-T): < 10%
- EC50 (5HT6; agonist): > 12.5 µM
- IC50 (5HT6; antagonist): > 12.5 µM
- EC50 (5HT7; agonist): > 12.5 µM
- IC50 (5HT7; antagonist): > 12.5 µM
- EC50 (ADRA2B - AG; agonist): > 12.5 µM
- IC50 (ADRA2B - AG; antagonist): > 12.5 µM
- EC50 (ADRA2C; agonist): > 12.5 µM
- IC50 (ADRA2C; antagonist): > 12.5 µM
- EC50 (D2L; agonist): > 12.5 µM
- IC50 (D2L; antagonist): > 12.5 µM
- EC50 (ETA; agonist): > 10 µM
- IC50 (ETA; antagonist): > 10 µM
- EC50 (KOP; agonist): > 12.5 µM
- IC50 (KOP; antagonist): > 12.5 µM
- EC50 (M2; agonist): > 12.5 µM
- IC50 (M2; antagonist): > 12.5 µM
- activity at 1 µM (CHK1(h)): 97%
- activity at 10 µM (CHK1(h)): 132%
- activity at 1 µM (CK2α2(h)): 92%
- activity at 10 µM (CK2α2(h)): 100%
- activity at 1 µM (cSRC(h)): 78%
- activity at 10 µM (cSRC(h)): 80%
- activity at 1 µM (GSK3α(h)): 93%
- activity at 10 µM (GSK3α(h)): 104%
- activity at 1 µM (GSK3β(h)): 111%
- activity at 10 µM (GSK3β(h)): 105%
- activity at 1 µM (IKKβ(h)): 75%
- activity at 10 µM (IKKβ(h)): 138%
- activity at 1 µM (IRAK4(h)): 113%
- activity at 10 µM (IRAK4(h)): 112%
- activity at 1 µM (JAK3(h)): 109%
- activity at 10 µM (JAK3(h)): 114%
- activity at 1 µM (MAPK1(h)): 91%
- activity at 10 µM (MAPK1(h)): 112%
- activity at 1 µM (PAK4(h)): 104%
- activity at 10 µM (PAK4(h)): 103%
- activity at 1 µM (Plk1(h)): 111%
- activity at 10 µM (Plk1(h)): 104%
- activity at 1 µM (TrkC(h)): 92%
- activity at 10 µM (TrkC(h)): 88%
- IC50 (NK2; read-out: IC50 in follow up functional assays): > 30 µM
- effect on NK2 in follow-up functional studies (NK2; up to 30 µM): no effect
- FOXP3 expression levels versus DMSO-treated cells [1]: similar
- thymus finding (dogs): increase in medium-sized thymocytes/mitoses
- fraction unbound (plasma protein binding): 0.011
